Columns and labels:
[1] = in vivo
Procedure: Food effect part was a two-period crossover study and conducted after finishing both SAD and MAD parts. […] For group A, the urine and feces samples for pharmacokinetic (PK) analysis were collected in the first period.
Safety was assessed according to the NCI CTCAE version 4.03, including AEs of changes in vital signs, 12-lead ECGs, abdominal ultrasound, chest X-ray, physical examination and clinical laboratory tests. Abdominal ultrasound and chest X-ray were only performed at screening. 12-lead ECGs, physical examination and clinical laboratory tests were conducted in screening and day 3 after administration in SAD cohorts; days 4, 7 and 12 in MAD cohorts; day 8 in food effect cohort. Vital signs were measured at screening and admission, 0 h (pre-dose) and 2, 6, 24, 48 h after administration in SAD cohorts; 0, 2, 6 h on day 1, 0 h on days 2, 3, 4, 7, 0, 2, 6, 24, 48 h after the last dose in MAD cohorts; 0, 2, 6, 24, 48, 72, 120 h in period 1 and 2, 6, 24, 48 h in period two in food effect cohort.

[2] = Plasma pharmacokinetics, multiple ascending dose (MAD), 10 days; assay type: in vivo, human
Procedure: MAD study was conducted after evaluating the tolerance of the single dose 100 mg cohort. In MAD part, volunteers were designed into five cohorts (100 mg q24h, 150 mg q24h, 100 mg q12h, 200 mg q24h, 150 mg q12h). […] The MAD part was initiated after the safety and tolerance evaluation from SAD 100 mg cohorts. Progression to higher MAD doses was allowed after review the safety data of the prior MAD cohorts.
For MAD cohorts, blood samples were collected at 0, 0.25, 0.5, 1, 1.5, 2, 3, 4, 5, 6, 8 and 12 h on day 1; 0 h on day 2, 3, 4, 6 and 7; 0, 0.25, 0.5, 1, 1.5, 2, 3, 4, 5, 6, 8, 12, 24, 36 and 48 h on day 10. In food effect cohort, blood samples were collected at 0, 0.25, 0.5, 1, 1.5, 2, 3, 4, 5, 6, 8, 12, 24, 36, 48, 72, 96 and 120 h in period one of group A; 0, 0.25, 0.5, 1, 1.5, 2, 3, 4, 5, 6, 8, 12, 24, 36 and 48 h in period two of group A and the two periods of group B. Blood samples were centrifuged at 3,000 rpm for 10 min at 2–8 °C and stored at -80 °C until liquid chromatography-mass spectrophotometry (LC-MS/MS) analysis. Urine and feces samples were collected in period one of group A of food effect cohort with the intervals 0, 0–6, 6–12, 12–24, 24–48, 48–72, 72–96, 96–120 and 0–120 h, respectively. […]

[3] = PK, single intravenous dose; assay type: in vivo, beagles; settings: 12.2 mg ZG0128 (1.22 mg/kg)
Procedure: Suzhou Zelgen Biopharmaceuticals Co., Ltd. Jaktinib Hydrochloride Tablets Chemical Drug Class 1 New Drug
Pharmacokinetics of single dose intravenous administration in beagles.
After intravenous administration of 12.2 mg ZG0128 (the average weight of the beagles was about 10 kg, so the dose given equals to 1.22 mg/kg ZG0128), ZG0163 […]
AUC0-t was 70.1% of that of the original drug.
Pharmacokinetics of single-dose intragastric administration.
The average Tmax of ZG0163 was 2.0 h after a single-dose intragastric administration of 1, 2, and 4 ZG0128 tablets (corresponding to 61, 122, and 244 […]
mg/ZG0128). […] The plasma […]
exposure AUC0-t was 459, 948, and 1728 ng•h/mL (mean) and the average plasma […]
There were large individual differences in plasma exposure AUC0-t in dogs. The pharmacokinetic differences between genders could not be determined. Within the range of 61-244 mg, the AUC0-t of ZG0163 increased proportionally with the increasing dosage. The average Tmax of metabolite ZG0245 was 2.0 h. The plasma exposure of metabolite ZG0245 was roughly 2.16 times

[4] = Metabolic stability in liver microsomes; assay type: in vitro ADME, monkey
Procedure: The metabolic stability of ZG0128 (the dihydrochloride monohydrate of ZG0163) was evaluated using human, monkey, dog, rat, and mouse liver microsomes as the in vitro models. The percentages of residues for ZG0128 after incubating in human, monkey, dog, rat, and mouse liver microsomes for 60 minutes was 55.5%, 63.1%, 67.1%, 80.3%, and 79.0%, respectively. The CLint values of in vivo clearance were calculated to be 24.1, 21.6, 33.4, 10.7, 26.0 mL/min/kg, respectively. Thus its was speculated that ZG0128 was a medium clearance drug in humans, monkeys, and mice, a high clearance drug in dogs, and a low clearance drug in rats.
Using UPLC-UV/Q-TOF MS, the potential metabolites of ZG0128 in various liver microsomes (human, monkey, dog, rat and mouse liver microsomes) incubation systems were identified and the metabolic pathways of ZG0128 were speculated. The main metabolite of ZG0128 in above five types of liver microsomes were primary alcohol metabolite formed by morpholine ring-opening (M3). […]

[5] = test system: myelofibrosis; assay: Myelofibrosis in JAK2V617F bone marrow transplanted mice; assay type: in vivo; settings: 100 mg/kg, 5 weeks

Jaktinib
treatment-related Grade 4–5 AEs [1]: Note: No treatment-related Grade 4–5 AEs observed in food effect cohorts.
accumulation factor Rac (90% CI) ([2]; 100 mg q12h): 1.24
Cmax, geometric mean (CV%) ([2]; 100 mg q12h, Day 1): 204.68 (36.2) ng/ml
Tmax, median (min–max) ([2]; 100 mg q12h, Day 1): 1.50 (0.50–4.00) h
Cmax, geometric mean (CV%) ([2]; 100 mg q12h, Day 10): 226.87 (33.2) ng/ml
Cmin,ss, geometric mean (CV%) ([2]; 100 mg q12h, Day 10): 27.565 (96.3) ng/ml
Fluctuation, geometric mean (CV%) ([2]; 100 mg q12h, Day 10): 204.463 (31.3) %
Tmax, median (min–max) ([2]; 100 mg q12h, Day 10): 3.00 (0.50–4.00) h
accumulation factor Rac (90% CI) ([2]; 100 mg q24h): 0.98
Cmax, geometric mean (CV%) ([2]; 100 mg q24h, Day 1): 182.68 (73.4) ng/ml
Tmax, median (min–max) ([2]; 100 mg q24h, Day 1): 2.00 (1.00–4.00) h
Cmax, geometric mean (CV%) ([2]; 100 mg q24h, Day 10): 150.84 (76.7) ng/ml
Cmin,ss, geometric mean (CV%) ([2]; 100 mg q24h, Day 10): 8.217 (169.4) ng/ml
Fluctuation, geometric mean (CV%) ([2]; 100 mg q24h, Day 10): 290.146 (45.7) %
Tmax, median (min–max) ([2]; 100 mg q24h, Day 10): 1.50 (1.00–4.00) h
accumulation factor Rac (90% CI) ([2]; 150 mg q12h): 1.38
Cmax, geometric mean (CV%) ([2]; 150 mg q12h, Day 1): 295.08 (52.6) ng/ml
Tmax, median (min–max) ([2]; 150 mg q12h, Day 1): 2.00 (1.00–4.00) h
Cmax, geometric mean (CV%) ([2]; 150 mg q12h, Day 10): 470.78 (38.2) ng/ml
Cmin,ss, geometric mean (CV%) ([2]; 150 mg q12h, Day 10): 26.868 (39.2) ng/ml
Fluctuation, geometric mean (CV%) ([2]; 150 mg q12h, Day 10): 274.265 (17.3) %
Tmax, median (min–max) ([2]; 150 mg q12h, Day 10): 1.25 (0.50–2.00) h
accumulation factor Rac (90% CI) ([2]; 150 mg q24h): 1.16
Cmax, geometric mean (CV%) ([2]; 150 mg q24h, Day 1): 236.94 (88.6) ng/ml
Tmax, median (min–max) ([2]; 150 mg q24h, Day 1): 3.00 (1.00–6.00) h
Cmax, geometric mean (CV%) ([2]; 150 mg q24h, Day 10): 250.23 (70.3) ng/ml
Cmin,ss, geometric mean (CV%) ([2]; 150 mg q24h, Day 10): 14.342 (71.1) ng/ml
Fluctuation, geometric mean (CV%) ([2]; 150 mg q24h, Day 10): 281.461 (29.1) %
Tmax, median (min–max) ([2]; 150 mg q24h, Day 10): 2.50 (1.00–5.00) h
accumulation factor Rac (90% CI) ([2]; 200 mg q24h): 0.94
Cmax, geometric mean (CV%) ([2]; 200 mg q24h, Day 1): 327.37 (36.6) ng/ml
Tmax, median (min–max) ([2]; 200 mg q24h, Day 1): 2.50 (1.50–4.00) h
Cmax, geometric mean (CV%) ([2]; 200 mg q24h, Day 10): 296.88 (58.3) ng/ml
Cmin,ss, geometric mean (CV%) ([2]; 200 mg q24h, Day 10): 10.798 (125.4) ng/ml
Fluctuation, geometric mean (CV%) ([2]; 200 mg q24h, Day 10): 390.098 (38.5) %
Tmax, median (min–max) ([2]; 200 mg q24h, Day 10): 3.00 (1.50–4.00) h
time to steady state ([2]; continuous administration, trough concentrations): approximately 4 days
plasma clearance CL [3]: 49.3 mL/min/kg
volume of distribution Vss [3]: 3.49 L/kg

Cl.Cl.O.[2H]C1([2H])COCC([2H])([2H])N1c1ccc(Nc2nccc(-c3ccc(C(=O)NCC#N)cc3)n2)cc1 [ZG0128, Jaktinib Dihydrochloride Monohydrate]
CLint of in vivo clearance [4]: 21.6 mL/min/kg
percentage of residue after 60 minutes [4]: 63.1%
progression of myelofibrosis [5]: significantly and effectively inhibited the progression of myelofibrosis
